Experimental data: patent US20110065896A1, “POLYETHER POLYOL DENDRON CONJUGATES WITH EFFECTOR MOLECULES FOR BIOLOGICAL TARGETING” (MIVENION GMBH, priority 2008, published 2011)

Experiments:
[1] = Fluorescence quantum yield of dendron dye in comparison to precursor dye; type: physicochemical
From the text: Fluorescence quantum yield of title compound of example 4a in comparison to precursor dye dendron bis-1,1′-(4-sulfobutyl)indotricarbocyanine-5,5′-dicarboxylic acid, sodium salt

[2] = Investigation of solubilities in PBS by observation of precipitates; type: physicochemical; details: conjugate solutions in PBS obtained in examples 10b and 10c, on storage
Protocol: Conjugation with IgG antibody: To a solution of 1 mg antibody (IgG from bovine serum; Sigma, >95%, salt free, powder) in […] of phosphate-buffered saline (PBS, pH 7.4) is given […] (32 μL) of a solution of 0.5 mg of N-hydroxysuccinimidyl ester of example 9 in 0.1 mL water. The mixture is shaken at 25° C. for 24 h in the dark. Purification is achieved by filtration via a NAP10 column (Pharmacia) using PBS as eluent. As control conjugate, pyropheophorbide a —NHS-ester is used for conjugation with IgG giving IgG-pyropheo conjugate.
Conjugation with bovine serum albumine (BSA): To a solution of 1 mg BSA (Sigma, fraction V, >98%, powder) in […] of phosphate-buffered saline (PBS, pH 7.4) is given […] (70 μL) of a solution of 0.5 mg of N-hydroxysuccinimidyl ester of example 9 in 0.1 mL water. The mixture is shaken at 25° C. for 24 h in the dark. Purification is achieved by filtration via a NAP 10 column (Pharmacia) using PBS as eluent.
Investigation of solubilities in PBS by observation of precipitates from the solutions obtained in examples 10b and 10c: […]

Compound | Fluorescence quantum yield ([1]; MeOH) | Fluorescence quantum yield ([1]; PBS) | Solubility in PBS by observation of precipitates [2]
CC1(C)C(=CC=CC=CC=CC2=[N+](CCCCS(=O)(=O)[O-])c3ccc(C(=O)O)cc3C2(C)C)N(CCCCS(=O)(=O)[O-])c2ccc(C(=O)O)cc21.[Na+] [Precursor dye, bis-1,1′-(4-sulfobutyl)indotricarbocyanine-5,5′-dicarboxylic acid, sodium salt] | 0.14 | 0.07 | –
BSA-pyropheo: control conjugate: pyropheophorbide a NHS-ester conjugated with BSA | – | – | immediate precipates
